Data taken from patent US8703768B2, “Nitrogen containing heteroaryl compounds” (Hoffmann-La Roche Inc., priority 2010, dated 2014).
pIC50: −log10 of the molar value.

target: human PDE10A (Homo sapiens (Human), UniProt Q9Y233); assay: human PDE10A full length Scintillation Proximity Assay (SPA); type: biochemical; conditions: 50 nM cGMP and 50 nM [3H]-cGMP, 20 minutes at room temperature; read-out: PDE10A inhibition IC50
Outline: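 Full-length enzyme incubated with compounds; reaction started with cGMP plus [^3H]-cGMP substrate and run 20 min at room temperature. Stopped with yttrium silicate SPA beads in 18 mM zinc sulphate, 1 h shaking, then scintillation counting; background from enzyme-free wells.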

Chain of human PDE10A (Q9Y233 other isoform, or with tags, fused parts or gaps): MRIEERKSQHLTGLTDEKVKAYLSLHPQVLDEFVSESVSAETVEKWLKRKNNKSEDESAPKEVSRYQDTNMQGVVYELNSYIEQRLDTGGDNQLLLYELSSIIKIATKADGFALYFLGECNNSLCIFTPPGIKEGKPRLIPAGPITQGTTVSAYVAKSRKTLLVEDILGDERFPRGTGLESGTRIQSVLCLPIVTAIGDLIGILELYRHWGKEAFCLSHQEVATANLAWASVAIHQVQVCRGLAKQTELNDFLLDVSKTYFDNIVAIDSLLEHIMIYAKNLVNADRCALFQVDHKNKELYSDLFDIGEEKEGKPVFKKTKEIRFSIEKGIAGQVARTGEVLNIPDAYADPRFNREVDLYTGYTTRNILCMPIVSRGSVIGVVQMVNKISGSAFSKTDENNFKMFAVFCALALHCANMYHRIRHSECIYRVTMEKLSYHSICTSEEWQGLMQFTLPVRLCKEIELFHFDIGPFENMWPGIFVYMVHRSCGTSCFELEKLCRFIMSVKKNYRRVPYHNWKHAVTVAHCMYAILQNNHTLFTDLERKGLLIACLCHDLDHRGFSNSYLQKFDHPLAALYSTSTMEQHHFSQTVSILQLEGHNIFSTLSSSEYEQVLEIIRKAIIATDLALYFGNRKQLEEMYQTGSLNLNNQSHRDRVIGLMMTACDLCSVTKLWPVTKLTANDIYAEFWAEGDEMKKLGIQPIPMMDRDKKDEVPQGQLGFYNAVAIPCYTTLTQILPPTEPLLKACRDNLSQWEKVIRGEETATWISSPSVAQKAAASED

Row | pIC50 | SMILES
1 | 8.70 | CNC(=O)c1c(NC(=O)c2nc(C3CC3)cnc2Nc2cncnc2)cnn1CC1CCO1 (centres unmarked) [Example 282, 6-Cyclopropyl-3-(pyrimidin-5-ylamino)-pyrazine-2-carboxylic acid (5-methylcarbamoyl-1-oxetan-2-ylmethyl-1H-pyrazol-4-yl)-amide]
2 | 7.36 | CNC(=O)c1c(NC(=O)c2nc(C3CC3)cnc2Nc2cncnc2)cnn1CC1CCOC1 (centres unmarked) [Example 286, 6-Cyclopropyl-3-(pyrimidin-5-ylamino)-pyrazine-2-carboxylic acid [5-methylcarbamoyl-1-(tetrahydro-furan-3-ylmethyl)-1H-pyrazol-4-yl]-amide]
3 | 7.62 | CNC(=O)c1c(NC(=O)c2nc(N3CCCC3)cnc2Nc2cncnc2)cnn1C [Example 289, 3-(Pyrimidin-5-ylamino)-6-pyrrolidin-1-yl-pyrazine-2-carboxylic acid (1-methyl-5-methylcarbamoyl-1H-pyrazol-4-yl)-amide]
4 | 9.15 | CNC(=O)c1ccc(F)cc1NC(=O)c1nc(C2CC2)cnc1Nc1cncnc1 [Example 292, 6-Cyclopropyl-3-(pyrimidin-5-ylamino)-pyrazine-2-carboxylic acid (5-fluoro-2-methylcarbamoyl-phenyl)-amide]
5 | 8.39 | CNC(=O)c1c(NC(=O)c2nc(N3CCOCC3)cnc2Nc2cncnc2)cnn1C [Example 297, 6-Morpholin-4-yl-3-(pyrimidin-5-ylamino)-pyrazine-2-carboxylic acid (1-methyl-5-methylcarbamoyl-1H-pyrazol-4-yl)-amide]
6 | 9.52 | CNC(=O)c1c(F)cc(F)cc1NC(=O)c1nc(C2CC2)cnc1Nc1cncnc1 [Example 299, 6-Cyclopropyl-3-(pyrimidin-5-ylamino)-pyrazine-2-carboxylic acid (3,5-difluoro-2-methylcarbamoyl-phenyl)-amide]
7 | 6.84 | CNC(=O)c1c(NC(=O)c2nc(N3CCC3)cnc2Nc2cncnc2)cnn1C [Example 304, 6-Azetidin-1-yl-3-(pyrimidin-5-ylamino)-pyrazine-2-carboxylic acid (1-methyl-5-methylcarbamoyl-1H-pyrazol-4-yl)-amide]
8 | 7.16 | CNC(=O)c1c(F)cccc1NC(=O)c1nc(C2CC2)cnc1Nc1cncnc1 [Example 307, 6-Cyclopropyl-3-(pyrimidin-5-ylamino)-pyrazine-2-carboxylic acid (3-fluoro-2-methylcarbamoyl-phenyl)-amide]
9 | 7.69 | CCN(C)c1cnc(Nc2cncnc2)c(C(=O)Nc2cnn(C)c2C(=O)NC)n1 [Example 311, 6-(Ethyl-methyl-amino)-3-(pyrimidin-5-ylamino)-pyrazine-2-carboxylic acid (1-methyl-5-methylcarbamoyl-1H-pyrazol-4-yl)-amide]
10 | 9.10 | CNC(=O)c1cc(F)ccc1NC(=O)c1nc(C2CC2)cnc1Nc1cncnc1 [Example 312, 6-Cyclopropyl-3-(pyrimidin-5-ylamino)-pyrazine-2-carboxylic acid (4-fluoro-2-methylcarbamoyl-phenyl)-amide]
11 | 7.28 | CN(C)CCNC(=O)c1c(NC(=O)c2nc(C3CC3)cnc2Nc2cncnc2)cnn1C [Example 313, 6-Cyclopropyl-3-(pyrimidin-5-ylamino)-pyrazine-2-carboxylic acid [5-(2-dimethylamino-ethylcarbamoyl)-1-methyl-1H-pyrazol-4-yl]-amide]
12 | 7.46 | CNC(=O)c1c(NC(=O)c2nc(C3CC3)ncc2Nc2cncnc2)cnn1C [Example 314, 2-Cyclopropyl-5-(pyrimidin-5-ylamino)-pyrimidine-4-carboxylic acid (1-methyl-5-methylcarbamoyl-1H-pyrazol-4-yl)-amide]

Further lines, the compound ahead of its results:

Row | SMILES | pIC50
13 | Cc1ncc(NC(=O)c2nc(C3CC3)cnc2Nc2cncnc2)c(C(=O)NCC(C)(C)O)n1 [Example 281, 5-{[6-Cyclopropyl-3-(pyrimidin-5-ylamino)-pyrazine-2-carbonyl]-amino}-2-methyl-pyrimidine-4-carboxylic acid (2-hydroxy-2-methyl-propyl)-amide] | 9.22
14 | CC(C)(O)CNC(=O)c1c(NC(=O)c2nc(C3CC3)cnc2Nc2cncnc2)cnn1CC1CCO1 (centres unmarked) [Example 283, 6-Cyclopropyl-3-(pyrimidin-5-ylamino)-pyrazine-2-carboxylic acid [5-(2-hydroxy-2-methyl-propylcarbamoyl)-1-oxetan-2-ylmethyl-1H-pyrazol-4-yl]-amide] | 8.96
15 | CN(C)C(=O)c1cc(F)c(F)cc1NC(=O)c1nc(C2CC2)cnc1Nc1cncnc1 [Example 284, 6-Cyclopropyl-3-(pyrimidin-5-ylamino)-pyrazine-2-carboxylic acid (2-dimethylcarbamoyl-4,5-difluoro-phenyl)-amide] | 7.55
16 | CC(C)(O)CNC(=O)c1c(NC(=O)c2nc(C3CC3)cnc2Nc2cncnc2)cnn1CC1CCOC1 (centres unmarked) [Example 287, 6-Cyclopropyl-3-(pyrimidin-5-ylamino)-pyrazine-2-carboxylic acid [5-(2-hydroxy-2-methyl-propylcarbamoyl)-1-(tetrahydro-furan-3-ylmethyl)-1H-pyrazol-4-yl]-amide] | 7.82
17 | CNC(=O)c1cc(F)c(F)cc1NC(=O)c1nc(C2CC2)cnc1Nc1cncnc1 [Example 288, 6-Cyclopropyl-3-(pyrimidin-5-ylamino)-pyrazine-2-carboxylic acid (4,5-difluoro-2-methylcarbamoyl-phenyl)-amide] | 9.10
18 | CNC(=O)c1cccc(F)c1NC(=O)c1nc(C2CC2)cnc1Nc1cncnc1 [Example 290, 6-Cyclopropyl-3-(pyrimidin-5-ylamino)-pyrazine-2-carboxylic acid (2-fluoro-6-methylcarbamoyl-phenyl)-amide] | 8.55
19 | O=C(Nc1cc(F)c(F)cc1C(=O)N1CCC1)c1nc(C2CC2)cnc1Nc1cncnc1 [Example 291, 6-Cyclopropyl-3-(pyrimidin-5-ylamino)-pyrazine-2-carboxylic acid [2-(azetidine-1-carbonyl)-4,5-difluoro-phenyl]-amide] | 7.51
20 | CC(C)(O)CNC(=O)c1cccc(F)c1NC(=O)c1nc(C2CC2)cnc1Nc1cncnc1 [Example 293, 6-Cyclopropyl-3-(pyrimidin-5-ylamino)-pyrazine-2-carboxylic acid [2-fluoro-6-(2-hydroxy-2-methyl-propylcarbamoyl)-phenyl]-amide] | 8.22
21 | CN(C)C(=O)c1ccc(F)cc1NC(=O)c1nc(C2CC2)cnc1Nc1cncnc1 [Example 294, 6-Cyclopropyl-3-(pyrimidin-5-ylamino)-pyrazine-2-carboxylic acid (2-dimethylcarbamoyl-5-fluoro-phenyl)-amide] | 7.71
22 | CC(C)(O)CNC(=O)c1cc(C(F)(F)F)ccc1NC(=O)c1nc(C2CC2)cnc1Nc1cncnc1 [Example 295, 6-Cyclopropyl-3-(pyrimidin-5-ylamino)-pyrazine-2-carboxylic acid [2-(2-hydroxy-2-methyl-propylcarbamoyl)-4-trifluoromethyl-phenyl]-amide] | 8.64
23 | CNC(=O)c1cc(C(F)(F)F)ccc1NC(=O)c1nc(C2CC2)cnc1Nc1cncnc1 [Example 296, 6-Cyclopropyl-3-(pyrimidin-5-ylamino)-pyrazine-2-carboxylic acid (2-methylcarbamoyl-4-trifluoromethyl-phenyl)-amide] | 8.41
24 | CN(C)C(=O)c1cc(F)ccc1NC(=O)c1nc(C2CC2)cnc1Nc1cncnc1 [Example 298, 6-Cyclopropyl-3-(pyrimidin-5-ylamino)-pyrazine-2-carboxylic acid (2-dimethylcarbamoyl-4-fluoro-phenyl)-amide] | 8.11
25 | CN(C)C(=O)c1c(F)cc(F)cc1NC(=O)c1nc(C2CC2)cnc1Nc1cncnc1 [Example 300, 6-Cyclopropyl-3-(pyrimidin-5-ylamino)-pyrazine-2-carboxylic acid (2-dimethylcarbamoyl-3,5-difluoro-phenyl)-amide] | 7.78
26 | CC(C)(O)CNC(=O)c1ccc(F)cc1NC(=O)c1nc(C2CC2)cnc1Nc1cncnc1 [Example 301, 6-Cyclopropyl-3-(pyrimidin-5-ylamino)-pyrazine-2-carboxylic acid [5-fluoro-2-(2-hydroxy-2-methyl-propylcarbamoyl)-phenyl]-amide] | 9.40
27 | O=C(Nc1cc(F)ccc1C(=O)N1CCC1)c1nc(C2CC2)cnc1Nc1cncnc1 [Example 302, 6-Cyclopropyl-3-(pyrimidin-5-ylamino)-pyrazine-2-carboxylic acid [2-(azetidine-1-carbonyl)-5-fluoro-phenyl]-amide] | 9.00
28 | CN(C)C(=O)c1cccc(F)c1NC(=O)c1nc(C2CC2)cnc1Nc1cncnc1 [Example 303, 6-Cyclopropyl-3-(pyrimidin-5-ylamino)-pyrazine-2-carboxylic acid (2-dimethylcarbamoyl-6-fluoro-phenyl)-amide] | 6.43
29 | O=C(Nc1ccc(F)cc1C(=O)N1CCC1)c1nc(C2CC2)cnc1Nc1cncnc1 [Example 305, 6-Cyclopropyl-3-(pyrimidin-5-ylamino)-pyrazine-2-carboxylic acid [2-(azetidine-1-carbonyl)-4-fluoro-phenyl]-amide] | 8.35
30 | CC(C)(O)CNC(=O)c1cc(F)ccc1NC(=O)c1nc(C2CC2)cnc1Nc1cncnc1 [Example 306, 6-Cyclopropyl-3-(pyrimidin-5-ylamino)-pyrazine-2-carboxylic acid [4-fluoro-2-(2-hydroxy-2-methyl-propylcarbamoyl)-phenyl]-amide] | 8.85
31 | CN(C)C(=O)c1c(F)cccc1NC(=O)c1nc(C2CC2)cnc1Nc1cncnc1 [Example 308, 6-Cyclopropyl-3-(pyrimidin-5-ylamino)-pyrazine-2-carboxylic acid (2-dimethylcarbamoyl-3-fluoro-phenyl)-amide] | 9.05
32 | O=C(Nc1cccc(F)c1C(=O)N1CCC1)c1nc(C2CC2)cnc1Nc1cncnc1 [Example 309, 6-Cyclopropyl-3-(pyrimidin-5-ylamino)-pyrazine-2-carboxylic acid [2-(azetidine-1-carbonyl)-3-fluoro-phenyl]-amide] | 8.96
